# Experimental data reported in PMC7006908 (PLoS ONE, 2020).
# Values joined by “and” are separate entries in the source; they are usually repeats but may differ in a detail not shown here. Identical values can stand only once. Like-named read-outs stand apart in the source and are kept apart here.
# How the values were obtained:
# [1] = Stability of deproteinized QCs in autosampler at 4 °C; assay type: physicochemical; settings: for Acc. %, T = 72 h in autosampler (4°C): % of nominal
# Protocol: (§1) Stability tests were conducted using QCs prepared in triplicate at each concentration (L, M, H): bench-top stability was investigated after 4 h at room temperature; stability of the deproteinized QCs was evaluated in autosampler set at 4 °C re-analysing the samples 24, 48, and 72 h after the first injection; freeze/thaw stability was assessed by analysing three freshly prepared aliquots of each QCs concentration, and then again after one and two freeze/thaw cycles.
# [2] = set-up: method as in PMID 29862467; settings: exposure-efficacy analysis in patients; cited from earlier work
# [3] = Long term stability of working solutions in methanol at -20°C; assay type: physicochemical; settings: for Acc. %, stored at -20ºC over 2 months (methanol): % of nominal
# [4] = Long term stability in human plasma at -80°C; assay type: in vitro ADME; settings: for Acc. %, stored at -80ºC over 2 months (plasma): % of nominal
# [5] = LC-MS/MS quantification of Cmin in plasma samples from breast cancer patients (clinical study CRO-2018-83); assay type: in vivo, human; settings: for concentration at 15 h / concentration at 30 h: human, plasma, oral; for concentration at 15 h: patient 7, sample 9, PALBO 125 mg/day; for concentration at 30 h: patient 8, sample 10, RIBO 600 mg/day + LETRO 2.5 mg/day
# Protocol: Preparation of calibration curve and QCs samples was conducted through the following steps: 1) 5 μL of working solutions were added to 95 μL of blank human plasma (dilution 1:20) and vortexed for 10 s; 2) a 10 μL-aliquot of this mix was added with 80 μL of cold IS working solution (see “Standard solutions preparation” section), vortexed and then centrifuged for 15 min at 16200 g and 4°C; 3) 70 μL of the supernatant were transferred to a polypropylene tube for the following analysis. […] The preparation of patients’ samples was conducted as following: patient plasma was thawed at room temperature, vortexed for 10 s and centrifuged, for 10 min, at 3000 g and 4°C; 10 μL of plasma was then treated according to steps 2) and 3).
# The HPLC system was a SIL-20AC XR auto-sampler and LC-20AD UFLC XR pumps (Shimadzu, Tokyo, Japan). The mobile phases (MP) consisted of ultrapure water with 0.1% HCOOH (phase A) and methanol/isopropanol (9:1, v/v) with 0.1% HCOOH (phase B). The chromatographic separation was obtained on the Luna Omega Polar C18 column ([…], 100 Å, 50 x 2.1 mm) coupled with a Security Guard Cartridge (Polar, C18, 4 x 2.0 mm), both provided by Phenomenex (Castel Maggiore (BO), Italy). The mass spectrometry system used for the detection was an API 4000 triple quadrupole (AB SCIEX, Massachusetts, USA) with a TurboIonSpray source operating in positive ion mode. To optimize source and compound dependent parameters, solutions of each analyte at the concentration of 100 ng/mL were used with a flow rate of 20 μL/min. Data were processed with Analyst 1.6.3 and the quantification of the peaks was done with MultiQuant 2.1 (software package AB SCIEX).
# The exclusion criteria were to be non-collaborative and/or unreliable patients and refusal of informed consent. Patients were asked to periodically (every two months) collect plasma samples for the estimation of PALBO or RIBO and/or LETRO Cmin during their therapy treatment.
# Plasma was obtained immediately by centrifugation of the blood samples at 3000 g for 10 min at 4°C. Then the obtained plasma was split into two independent aliquots and stored at -80°C in two different freezers.
# At present, each of the 10 patients’ samples collected were quantified in 2 separate runs during 2 different working days, to further assess the reproducibility of the proposed method. In fact, as recently introduced in the last version of the FDA guideline, incurred samples re-analysis (ISR) is necessary to show the reliability of the reported analyte concentrations obtained with a bioanalytical method. ISR is conducted by repeating the analysis of a subset of patients’ samples in separate runs. The two analyses can be considered equivalent if the percentage difference [expressed as: (repeat-original)*100/mean] between the first and the second concentration measured is within ±20% for at least 67% of the samples [23, 24].
# [6] = Bench-top stability in human plasma, 4 h at room temperature; assay type: in vitro ADME; settings: for Acc. %, T = 4h (RT): % of nominal
# Protocol: as §1
# [7] = cited from earlier work
# [8] = deproteinized QC high: nominal 200.00 PALBO / 8000.00 RIBO / 400.00 LETRO ng/mL
# [9] = deproteinized QC low: nominal 0.50 PALBO / 20.00 RIBO / 1.00 LETRO ng/mL
# [10] = deproteinized QC medium: nominal 20.00 PALBO / 800.00 RIBO / 40.00 LETRO ng/mL
# [11] = QC high: nominal 200.00 PALBO / 8000.00 RIBO / 400.00 LETRO ng/mL
# [12] = QC low: nominal 0.50 PALBO / 20.00 RIBO / 1.00 LETRO ng/mL
# [13] = QC medium: nominal 20.00 PALBO / 800.00 RIBO / 40.00 LETRO ng/mL
# [14] = plasma QC high: nominal 200.00 PALBO / 8000.00 RIBO / 400.00 LETRO ng/mL
# [15] = plasma QC low: nominal 0.50 PALBO / 20.00 RIBO / 1.00 LETRO ng/mL
# [16] = plasma QC medium: nominal 20.00 PALBO / 800.00 RIBO / 40.00 LETRO ng/mL
smiles,measurement,setting,value
"N#Cc1ccc(C(c2ccc(C#N)cc2)n2cncn2)cc1 [LETRO, letrozole]","Mean ± SD measured concentration, T = 72 h in autosampler (4°C)",[1]; [8],426.23 ± 4.43 ng/mL
same,"Acc. %, T = 72 h in autosampler (4°C)",[1]; [8],106.6%
same,"Mean ± SD measured concentration, T = 72 h in autosampler (4°C)",[1]; [9],0.94 ± 0.07 ng/mL
same,"Acc. %, T = 72 h in autosampler (4°C)",[1]; [9],93.9%
same,"Mean ± SD measured concentration, T = 72 h in autosampler (4°C)",[1]; [10],44.45 ± 0.19 ng/mL
same,"Acc. %, T = 72 h in autosampler (4°C)",[1]; [10],111.1%
same,LETRO plasma concentration associated with longer time to tumour progression,[2],≥ 85.6 ng/mL
same,"Mean ± SD measured concentration, stored at -20ºC over 2 months (methanol)",[3]; [11],413.47 ± 6.07 ng/mL
same,"Acc. %, stored at -20ºC over 2 months (methanol)",[3]; [11],103.4%
same,"Mean ± SD measured concentration, stored at -20ºC over 2 months (methanol)",[3]; [12],1.05 ± 0.03 ng/mL
same,"Acc. %, stored at -20ºC over 2 months (methanol)",[3]; [12],105.1%
same,"Mean ± SD measured concentration, stored at -20ºC over 2 months (methanol)",[3]; [13],44.12 ± 1.25 ng/mL
same,"Acc. %, stored at -20ºC over 2 months (methanol)",[3]; [13],110.3%
same,"Mean ± SD measured concentration, stored at -80ºC over 2 months (plasma)",[4]; [11],386.66 ± 6.61 ng/mL
same,"Acc. %, stored at -80ºC over 2 months (plasma)",[4]; [11],96.7%
same,"Mean ± SD measured concentration, stored at -80ºC over 2 months (plasma)",[4]; [12],0.88 ± 0.01 ng/mL
same,"Acc. %, stored at -80ºC over 2 months (plasma)",[4]; [12],88.3%
same,"Mean ± SD measured concentration, stored at -80ºC over 2 months (plasma)",[4]; [13],39.58 ± 0.90 ng/mL
same,"Acc. %, stored at -80ºC over 2 months (plasma)",[4]; [13],99.0%
same,concentration at 15 h,"[5]; LETRO 2.5 mg/day, last pill intake 15 h before sampling, read-out: I quantif. plasma concentration (Cmin)",2.8 ng/mL
same,concentration at 15 h,"[5]; LETRO 2.5 mg/day, reanalysis in second run, read-out: II quantif. plasma concentration (Cmin)",2.9 ng/mL
same,concentration at 30 h,"[5]; 30 h from last pills intake, read-out: I quantif. plasma concentration (Cmin)",46.8 ng/mL
same,concentration at 30 h,"[5]; reanalysis in second run, read-out: II quantif. plasma concentration (Cmin)",46.9 ng/mL
same,II quantif. plasma concentration (Cmin),"[5]; patient 6, sample 8, PALBO 125 mg/day, LETRO 2.5 mg/day, reanalysis in second run",67.8 ng/mL
same,"Mean ± SD measured concentration, T = 4h (RT)",[6]; [14],372.54 ± 24.58 ng/mL
same,"Acc. %, T = 4h (RT)",[6]; [14],93.1%
same,"Mean ± SD measured concentration, T = 4h (RT)",[6]; [15],0.88 ± 0.06 ng/mL
same,"Acc. %, T = 4h (RT)",[6]; [15],88.2%
same,"Mean ± SD measured concentration, T = 4h (RT)",[6]; [16],37.95 ± 1.78 ng/mL
same,"Acc. %, T = 4h (RT)",[6]; [16],94.9%
same,LETRO mean plasma concentration (±SD),[7]; ref 11 (Beer et al.),107.0 ng/mL and 107.0 ± 62.9 ng/mL
same,LETRO mean plasma concentration (range),[7]; ref 22 (Desta et al.),89.7 (28.4–349.2) ng/mL
